Molecular target: T1, ΔK280 TauRD‐DsRed (Homo sapiens, UniProt P10636, DEL597-597)
T1 construct: containing residues 244–372 of the full‐length 4R2N Tau441; expressed in transfected cells; host or cells: Tet-On 293 cells, doxycycline-induced (pcDNA5/FRT/TO/TauRD-DsRed)
Assay: ∆K280 TauRD‐DsRed fluorescence assay (Tau misfolding) in 293 cells
Assay type: cell-based
Settings: 3 days
From the text: In ∆K280 TauRD‐DsRed 293 cells, a proaggregant (ΔK280) Tau repeat domain (TauRD) containing residues 244–372 of the full‐length 4R2N Tau441 was fused in‐frame with DsRed fluorophore. Compared to the wild‐type TauRD, the poorly folded ΔK280 TauRD formed aggregates, which adversely affected the folding of fused DsRed and thus decreased DsRed fluorescence, as also evidenced by increase in thioflavin S fluorescence emission (Chang et al., 2017). Thioflavin S is a reporter dye for studies of Tau toxicity and pharmacologic prevention in cell model of tauopathy (Pickhardt et al., 2017). It binds to amyloid fibrils but not monomers and gives a distinct increase in fluorescence emission. Inhibition of Tau aggregation may improve DsRed misfolding, leading to increased fluorescence in ΔK280 TauRD‐DsRed‐expressing cells. […] In the following experiments, DsRed fluorescence was measured in wells containing at least 80% viable cells. […]
DsRed fluorescence of proaggregant ∆K280 TauRD-DsRed 293 cells was evaluated to reflect Tau aggregation. […] Thioflavin S images (FITC 543 nm excitation and 593 nm emission) were captured and analyzed as described. In general, 2 × 10^4 cells in each biological replicate were analyzed.
Figure S2. ΔK280 TauRD-DsRed 293 cells. […] DsRed/thioﬂavin S fluorescence, ROS, and caspase 3 activity were assessed on day 5. […] (c) Dose response curves of LM-031 based on DsRed fluorescence measurement. […]

T1 sequence (P10636 with tags, fused parts or gaps isoform P10636-8 DEL280-280): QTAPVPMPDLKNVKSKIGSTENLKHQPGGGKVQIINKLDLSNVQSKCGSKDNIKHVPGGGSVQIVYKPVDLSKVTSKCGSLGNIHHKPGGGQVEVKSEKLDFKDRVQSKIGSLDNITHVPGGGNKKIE

SMILES	∆K280 TauRD‐DsRed fluorescence (10 µM, no treatment = 100%) [%]	∆K280 TauRD‐DsRed fluorescence (1 µM, untreated cells = 100%) [%]
Nc1c(/N=N/c2ccc(-c3ccc(/N=N/c4cc(S(=O)(=O)O)c5ccccc5c4N)cc3)cc2)cc(S(=O)(=O)O)c2ccccc12 [congo red, reference compound]	108	–
C=CC(C)(C)c1cc(/C=C/C(=O)c2ccc(O)cc2)c(OC)cc1O [licochalcone A, reference compound]	–	105
